# Source: PubChem BioAssay (NCI)
# “And” between values parts separate entries of the source, which are not always exact repeats. Identical values can stand only once.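 Five compound concentrations were applied to cells in 96-well plates for 48 hours; endpoints were derived by simple linear interpolation of the resulting dose-response curve. Here, GI50 denotes the concentration required for 50% inhibition of growth. Definition used: TGI = concentration required for complete inhibition of growth.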
# Key:
# Assay in all cases: inhibition of tumour cell growth, NCI panel, 48 h
# NCI-H522 lung = system: NCI-H522 lung
# SK-MEL-5 melanoma = system: SK-MEL-5 melanoma
# DU-145 prostate = system: DU-145 prostate
# MOLT-4 leukemia = system: MOLT-4 leukemia
# NCI-H226 lung = system: NCI-H226 lung
# ACHN renal = system: ACHN renal
# UO-31 renal = system: UO-31 renal
# HOP-92 NSCLC = system: HOP-92 NSCLC
# SNB-75 CNS = system: SNB-75 CNS
# OVCAR-8 ovarian = system: OVCAR-8 ovarian
# T-47D breast = system: T-47D breast
# PC-3 prostate = system: PC-3 prostate
# LOX IMVI melanoma = system: LOX IMVI melanoma
# CCRF-CEM leukemia = system: CCRF-CEM leukemia
# OVCAR-5 ovarian = system: OVCAR-5 ovarian
# MCF7 breast = system: MCF7 breast
# MDA-MB-231 breast = system: MDA-MB-231 breast
# BT-549 breast = system: BT-549 breast
# MDA-MB-435 = system: MDA-MB-435
# KM12 colon = system: KM12 colon
# K-562 leukemia = system: K-562 leukemia
# SK-OV-3 ovarian = system: SK-OV-3 ovarian
# HS 578T breast = system: HS 578T breast
# OVCAR-3 ovarian = system: OVCAR-3 ovarian
# SR leukemia = system: SR leukemia
# NCI-H23 lung = system: NCI-H23 lung
# COLO 205 colon = system: COLO 205 colon
# RXF 393 renal = system: RXF 393 renal
structure (smiles),measurement,setting,value
COc1cc(OC)cc(N2CCN(C(=O)Nc3nc4cc(F)ccc4nc3OC)CC2)c1,GI50,NCI-H522 lung,0.012 µM and 0.0225 µM
same,TGI,NCI-H522 lung,0.534 µM and 0.581 µM and 0.146 µM
same,GI50,SK-MEL-5 melanoma,< 0.023 µM and 0.0297 µM and 0.023 µM
same,TGI,SK-MEL-5 melanoma,0.294 µM and 0.399 µM and 0.16 µM
same,GI50,DU-145 prostate,0.0438 µM and 0.0429 µM and 0.0403 µM
same,TGI,DU-145 prostate,> 100 µM and 34.9 µM
same,GI50,MOLT-4 leukemia,0.049 µM and 0.0457 µM and 0.044 µM
same,TGI,MOLT-4 leukemia,31.1 µM and 30.7 µM
same,GI50,NCI-H226 lung,0.197 µM and 0.0515 µM and 0.136 µM
same,GI50,ACHN renal,0.0129 µM and 0.0608 µM and 0.0408 µM
same,TGI,ACHN renal,25.6 µM and > 100 µM
same,GI50,UO-31 renal,0.0681 µM and 0.0692 µM and 0.0336 µM
same,TGI,UO-31 renal,38.9 µM and 43.3 µM
same,GI50,HOP-92 NSCLC,< 0.01 µM and 0.0062 µM
same,TGI,HOP-92 NSCLC,19.3 µM and 3.83 µM and 6.77 µM
same,GI50,SNB-75 CNS,0.0197 µM and 0.0243 µM
same,TGI,SNB-75 CNS,56.4 µM and 57.2 µM
same,GI50,OVCAR-8 ovarian,0.0437 µM and 0.0499 µM and 0.056 µM
same,TGI,OVCAR-8 ovarian,> 100 µM
same,GI50,T-47D breast,0.832 µM
same,TGI,T-47D breast,43.8 µM
same,GI50,PC-3 prostate,0.116 µM and 0.0312 µM and 0.033 µM
same,TGI,PC-3 prostate,40.7 µM and 22.9 µM
same,GI50,LOX IMVI melanoma,0.0506 µM and 0.0658 µM and 0.0352 µM
same,TGI,LOX IMVI melanoma,17.6 µM and 13.6 µM
same,GI50,CCRF-CEM leukemia,0.0899 µM and 0.0338 µM and 0.0345 µM
same,TGI,CCRF-CEM leukemia,> 100 µM
same,GI50,OVCAR-5 ovarian,0.0557 µM and 0.158 µM and 0.0528 µM
same,TGI,OVCAR-5 ovarian,> 100 µM
same,GI50,MCF7 breast,0.0239 µM and 0.0265 µM and 0.0142 µM
same,TGI,MCF7 breast,24.7 µM and 22.8 µM
same,GI50,MDA-MB-231 breast,0.0524 µM and 0.0976 µM and 0.0361 µM
same,GI50,BT-549 breast,0.0345 µM and 0.0458 µM and 0.0335 µM
same,TGI,BT-549 breast,2.49 µM and 2.33 µM and 0.498 µM
same,GI50,MDA-MB-435,< 0.01 µM and 0.01 µM
same,TGI,MDA-MB-435,0.0215 µM and 0.0336 µM
same,GI50,KM12 colon,0.0282 µM and 0.0358 µM and 0.0302 µM
same,TGI,KM12 colon,> 100 µM
same,GI50,K-562 leukemia,0.0184 µM and 0.0375 µM and 0.0304 µM
same,TGI,K-562 leukemia,> 100 µM
same,GI50,SK-OV-3 ovarian,0.0406 µM and 0.0838 µM and 0.033 µM
same,TGI,SK-OV-3 ovarian,> 47.8 µM and 17.1 µM
same,GI50,HS 578T breast,< 0.01 µM and 0.027 µM and 0.0388 µM
same,TGI,HS 578T breast,33.2 µM and > 100 µM
same,GI50,OVCAR-3 ovarian,0.0232 µM and 0.0252 µM and 0.0219 µM
same,GI50,SR leukemia,< 0.018 µM and 0.0415 µM and 0.0268 µM
same,TGI,SR leukemia,20.2 µM and 24.8 µM
same,GI50,NCI-H23 lung,0.0578 µM and 0.062 µM and 0.052 µM
same,TGI,NCI-H23 lung,52.2 µM and 34.5 µM
same,GI50,COLO 205 colon,0.0267 µM and 0.0321 µM and 0.0266 µM
same,TGI,COLO 205 colon,0.0831 µM and 0.123 µM and 0.0771 µM
same,GI50,RXF 393 renal,< 0.01 µM and 0.016 µM
same,TGI,RXF 393 renal,40.7 µM and 66.1 µM
